# Measured values taken from patent US20260263550A1, “METHODS AND COMPOSITIONS FOR TREATING, PREVENTING, INHIBITING, AMELIORATING OR DELAYING THE ONSET OF OPHTHALMIC CONDITIONS” (Stealth BioTherapeutics Inc., priority 2021, published 2026).
# What was measured:
# [1] = tested on: iPSC-derived RPE cells from AMD donors; test: Measurement of mitochondrial function (Seahorse XF Cell Mito Stress Test); type: cell-based, human; conditions: 10, 100, 1000 nM, treatment began 24 hours prior to assay, FIGS. 8AA-8AL
# Description: Measurement of mitochondrial function. Analysis of mitochondrial function was performed on live iPSC-derived RPE cells from AMD donors (n=3; 2 atrophic with GA, 1 exudative) treated with drug (elamipretide, compound of Formula IIa, or vehicle) as described below and iPSC-derived RPE cells from non-diseased controls (n=2) using the XFe96 Extracellular Flux Analyzer (Agilent Technologies, Santa Clara, California, www.agilent.com) and the Seahorse XF Cell Mito Stress Test (CMST) Kit (Agilent Technologies). iPSC-derived RPE cells were seeded onto a laminin-coated Seahorse XF plates and grown until confluent. Data were normalized by cell count. Drug treatments began 24 hours prior to assay. […]
# Cells were stained with DAPI and counted by ImageJ software (National Institute of Health, Bethesda, Maryland, www.nih.gov). […] Oxygen consumption rate was detected under basal conditions followed by the sequential addition of oligomycin, carbonyl cyanide 4-(trifluoromethoxy) phenylhydrazone (FCCP), rotenone, and antimycin A. From these sequential additions, the following parameters can be derived: basal respiration, ATP production, maximal respiration, and spare respiratory capacity.
# [2] = Uptake in plasma and compartments of the eye in a rabbit model (subcutaneous or topical ocular dosing); type: in vivo, Dutch Belted Rabbits
# Description: 3 mg/mL elamipretide or compound of Formula IIa in saline was dosed subcutaneously at 1.5 mg/kg. A 3 mg/mL elamipretide or compound of Formula IIa formulation was prepared by dissolving 81 mg elamipretide in a total volume of 27 mL of sterile saline and mixing well. • (ii) Groups 2 & 4: Topical Ocular Formulation for administration of elamipretide or compound of Formula IIa
# For each preparation (i.e., elamipretide or compound of Formula IIa, sodium chloride (105 mg) was dissolved in 16 mL of water for injection with mixing. With mixing, 82.8 mg of sodium phosphate monobasic, monohydrate was then added. With mixing, 0.400 mL of a 5 mg/mL benzalkonium chloride solution in water (to be prepared by diluting 0.100 mL of a 50% benzalkonium chloride solution in water to 10 mL with water for injection) was then added. Two hundred (200) mg of elamipretide or compound of Formula IIa was then added with mixing and the formulation pH was adjusted to 5.8 (+/−0.1) with 1 M sodium hydroxide in water solution. The final volume of the formulation was then be brought to 20 mL using water for injection. Each formulation (elamipretide or compound of Formula IIa) was used for topical ocular administration at a dose of 50 μL/eye OU.
# A total of 48 male Dutch Belted Rabbits were used in the study. Each animal was approximately 2 kg.
# For subcutaneous administration, rabbits were dosed via a single subcutaneous injection of 1.5 mg/kg and at the scruff of the neck between the shoulder blades using a syringe with an attached 27G×½ inch needle (or similar). The site of injection was checked to ensure no leakage of dose immediately following administration.
# For topical administration, a calibrated Gilson positive displacement pipette was used to administer 50 μL of formulation onto the globe the eye while the lower eyelid was pulled away from the globe. Administration was twice daily (i.e., BID). Doses were administered to both eyes, every 8 to 12 hours for 11 total doses.
# Terminal blood samples (approximately 6 mL) were collected from two animals/group/timepoint via the central ear artery at approximately 0.5, 1, 2, 4, 8, and 24 hours postdose. Blood samples were collected into tubes containing K2EDTA as the anticoagulant and inverted several times to ensure adequate mixing of blood and anticoagulant and placed on ice. Within 30 min of collection, samples were centrifuged to harvest plasma and stored at −80° C. until analyzed.
# Following blood collection, designated animals were euthanized by barbiturate overdose. Following euthanasia, both eyes of each rabbit were harvested and dissected for collection of ocular tissue and fluid. Optic nerve and retina were collected from Group 1 and 3 animals, and aqueous humor, retina, conjunctiva, cornea, sclera, and optic nerve were collected from Group 2 and 4 animals. Following dissection, all fluids and tissues were placed in pre-tared tubes, weight collected, and then flash frozen on dry ice and placed in a freezer at −80° C. or lower until analyzed. Concentrations of test article in plasma in the ocular tissues (ng/g tissue) and fluids (ng/mL fluid) were determined utilizing a method previously developed by the CRO.
# [3] = tested on: iPSC-derived RPE cells from AMD donors; test: Microarray analysis of gene expression on in vitro Bruch's membrane model; type: cell-based, human; conditions: AMD-derived RPE on nitrite-modified ECM, 10, 100, 1000 nM, 24 hours
# Description: (§1) General. iPSC-derived RPE were generated from AMD patients (2 atrophic; 1 exudative) and patients with no history of AMD (n=3). To test the therapeutic efficacy of elamipretide and compound of Formula IIa, cell viability was analyzed on nitrite-modified extracellular matrix (ECM), a typical modification of aged Bruch's membrane, for 24 hrs. DNA microarrays were used to elucidate gene expression in AMD-derived RPE cultured on nitrite-modified ECM.
# Microarray analysis. iPSC-derived RPE cells from AMD donors (n=3; 2 atrophic with GA, 1 exudative) were treated with drug (elamipretide or compound of Formula IIa) as described below and cultured on an in vitro Bruch's membrane model for 24 hours.
# • AMD donors only (n=3 individual donors) • Cells treated with elamipretide (also referred to as “309” in the figures) at 10 nM, 100 nM and 1000 nM • Cells treated with compound of Formula IIa (also referred to as “146c” in the figures) at 10 nM, 100 nM, 1000 nM
# Microarray studies using Affymetrix GeneChip Human Clariom™ S Assay were performed as described in Gong et al. (2020).
# [4] = at 24 weeks of treatment; Pieramici & Ehlers, slide 15; cited from earlier work
# [5] = tested on: iPSC-derived RPE cells from AMD donors; test: Cell viability assay on nitrite-modified ECM (Real Time-Glo MT Cell Viability Assay); type: cell-based, human; conditions: 10, 100, 1000 nM; 24 hours; versus vehicle-treated cells; FIG. 8J, *p<0.05
# Description: as §1
# Preparation of RPE cell-derived ECM and nitrite-modified ECM RPE cell-derived ECM plates were prepared from ARPE-19 cells as described in Wang et al., Curr Eye Res. 30:691-702 (2005); Fields et al. (2017); and Moreira et al., Transl Vis Sci Technol. 4:10 (2015). ECM on 96-well plates were used to create two experimental plating surfaces (nontreated ECM and nitrite-modified ECM). Nitrite-modified ECM was prepared by adding 100 mM sodium nitrite to ECM followed by incubation at 37° C. for 7 days. Plates were then washed with DPBS and incubated with DPBS for 4 hours to completely remove the nitrite. […]
# Cell viability was measured by Real Time-Glo MT Cell Viability Assay (Promega, Madison, WI, www.promega.com) according to the manufacturer's protocol. […] Luminescent signals were acquired using a BioTek FLx800 plate reader (BioTek).
substance,measurement,setting,value
elamipretide [reference compound],mitochondrial function (ATP production; basal respiration; maximal respiration; spare respiratory capacity),[1],efficacy in improving mitochondrial function
same,"concentration in plasma, elamipretide compared with compound of Formula IIa","[2]; SC 1.5 mg/kg single dose or topical eye drops BID, 11 doses, FIGS. 1A, 1B",roughly equivalent
same,"concentration accumulated in the retina, compared with the other test article","[2]; regardless of mode of administration (topical or subcutaneous), FIGS. 2A, 2B",much lower
same,expression of complement regulatory genes including CFHR2,[3]; FIG. 8S,increase expression
same,"expression of complement component genes (C1R, C3, C4A) increased by nitration of ECM",[3]; FIGS. 8L-8P,reverse this trend
same,"expression of mitochondrial-related genes, such as CYP24A1 and GLS",[3]; FIGS. 8W-8Z,altered the expression
same,Average BCVA and LLVA in NCGA and HRD patients,[4],improved significantly
same,AMD-derived RPE cell viability on nitrite-modified ECM,[5],significantly enhanced
